49 compounds from patent US12528819B2 (priority 2016, dated 2026) can be followed below.

For the assay, the target named is T1, α5β2γ2 subtype GABAAR (Homo sapiens, UniProt P18507+P31644).
T1 construct: expressed in transfected cells
T1 sequence (P31644 32-462): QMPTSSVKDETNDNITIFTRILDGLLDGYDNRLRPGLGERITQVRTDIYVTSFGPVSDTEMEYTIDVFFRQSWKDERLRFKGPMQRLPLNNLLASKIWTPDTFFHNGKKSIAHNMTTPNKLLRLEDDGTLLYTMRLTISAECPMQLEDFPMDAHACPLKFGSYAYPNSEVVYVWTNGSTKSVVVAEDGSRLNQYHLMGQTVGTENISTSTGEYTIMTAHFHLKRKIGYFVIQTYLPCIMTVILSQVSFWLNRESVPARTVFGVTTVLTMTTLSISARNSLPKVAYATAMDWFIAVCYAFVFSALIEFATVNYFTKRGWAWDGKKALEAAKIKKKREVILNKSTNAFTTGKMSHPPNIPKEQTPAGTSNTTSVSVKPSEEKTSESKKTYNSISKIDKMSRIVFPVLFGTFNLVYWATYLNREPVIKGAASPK
T1 sequence (P47870 25-512 partner limits assumed): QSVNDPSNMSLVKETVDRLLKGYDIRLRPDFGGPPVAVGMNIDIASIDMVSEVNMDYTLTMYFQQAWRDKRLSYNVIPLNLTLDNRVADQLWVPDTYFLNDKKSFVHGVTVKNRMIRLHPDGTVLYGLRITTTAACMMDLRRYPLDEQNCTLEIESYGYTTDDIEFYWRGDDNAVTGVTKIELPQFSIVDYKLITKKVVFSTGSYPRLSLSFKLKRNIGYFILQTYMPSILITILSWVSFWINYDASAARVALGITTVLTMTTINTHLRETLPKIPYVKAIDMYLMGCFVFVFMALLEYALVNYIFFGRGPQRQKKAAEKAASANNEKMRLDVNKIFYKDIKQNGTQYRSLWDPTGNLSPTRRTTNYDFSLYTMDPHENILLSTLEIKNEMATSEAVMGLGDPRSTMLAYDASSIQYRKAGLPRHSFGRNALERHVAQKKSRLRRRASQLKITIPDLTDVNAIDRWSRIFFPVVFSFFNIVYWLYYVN
T1 sequence (P18507 40-467 limits assumed): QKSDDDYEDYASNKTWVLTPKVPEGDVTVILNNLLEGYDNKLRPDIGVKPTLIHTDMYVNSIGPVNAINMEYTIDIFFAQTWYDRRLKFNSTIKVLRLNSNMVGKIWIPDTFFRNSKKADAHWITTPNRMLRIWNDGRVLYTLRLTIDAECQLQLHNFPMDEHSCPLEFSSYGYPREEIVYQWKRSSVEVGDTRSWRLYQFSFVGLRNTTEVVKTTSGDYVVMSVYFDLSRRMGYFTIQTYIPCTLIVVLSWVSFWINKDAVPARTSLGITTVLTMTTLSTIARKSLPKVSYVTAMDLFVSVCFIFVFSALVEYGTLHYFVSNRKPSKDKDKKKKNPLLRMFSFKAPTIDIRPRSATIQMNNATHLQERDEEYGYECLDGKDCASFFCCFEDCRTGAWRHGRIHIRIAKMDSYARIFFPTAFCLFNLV
The experiment in a line: Positive allosteric modulator activity: potentiation of EC20 GABA current in oocytes. It counts as cell-based. The following applies: read-out: GABA α5 Functional Data (potentiation), @ 100 nM, reported as ranges. The protocol:
(B) Positive Allosteric Modulator Activity of Test Compounds on α5β2γ2 Subtype GABAAR
On day 1, 1 ng/32 nL of GABAA α5β2γ2 cDNA was injected into one oocyte. Test starts on day 2. The cDNA injected to the oocytes was a mix of alpha, beta and gamma, their ratio is 1:1:10 (by weight) and the total weight of the mixed 3 subunits to be injected in one oocyte was 1 ng in 32 nl volume. The injected oocytes can also be tested on day 3. In such case, the cDNA amount injected to the oocytes should be reduced by 20%.
Compounds of the present invention were tested using the following procedures.
• 1). 8 oocytes were placed in 8 chambers of OpusXpress and superfused with Modified Barth's Saline (MBS) at 3 mL/min. Glass electrodes back-filled with 3M KCl (0.5-3 megaohms) were used.
Control test (Diazepam or methyl 3,5-diphenylpyridazine-4-carboxylate) • 1). New oocytes was used to run new test. • 2). […] Oocytes were washed with MBS for 5-10 min. • 4). […] Itest was divided by IGABA to obtain potentiation (%). Test Compounds at Multiple Doses • 1). Repeat the above steps 1), 2) and 3) in the control test. • 2). […] Divide Itest by IGABA to obtain potentiation (%). • 3). Discard all tested oocytes, new oocytes were used and the above steps 1) and 2) were repeated to test second concentration of the same compound. Each oocyte was used for only one concentration test for a single test compound. The steps were repeated for other test compounds.
As to `Cc1nc(-c2ncn3c2Cn2c(COc4ccccc4)nnc2-c2cc(F)ccc2-3)no1` [Compound 148], the activation at 0.1 µM lay within 20 to 50%.
To `Cc1nnn2c1Cc1c(-c3noc(C(C)C)n3)ncn1-c1ccc(F)cc1-2` [Compound 149] belongs > 50%; to `Cc1nnn2c1Cc1c(C(=O)OC(C)C)ncn1-c1ccccc1-2` [Compound 153], 20 to 50%; to `CCc1nc(-c2ncn3c2Cc2c(C)nnn2-c2cc(F)ccc2-3)no1` [Compound 155], 20 to 50%.
Turning to `CCc1nc(-c2ncn3c2Cn2c(COc4ccccc4)nnc2-c2cc(F)ccc2-3)no1` [Compound 158], the activation at 0.1 µM lay in the range of 20 to 50%.
The same measure for `Cc1nnn2c1Cc1c(-c3noc(C(C)(C)C)n3)ncn1-c1ccc(F)cc1-2` [Compound 160]: > 50%; for `COc1ccc2c(c1)-c1nnc(COc3ccccc3)n1Cc1c(-c3noc(C)n3)ncn1-2` [Compound 162]: 20 to 50%; for `COc1ccc2c(c1)-c1nnc(COc3ccc(F)cc3)n1Cc1c(-c3noc(C)n3)ncn1-2` [Compound 163]: 20 to 50%.
As for `COCc1nnc2n1Cc1c(-c3noc(C)n3)ncn1-c1ccc(OC)cc1-2` [Compound 164], the activation at 0.1 µM was in the range of 5 to 20%.
Consider `COc1ccc2c(c1)-c1nnc(COCc3ccccc3)n1Cc1c(C#N)ncn1-2` [Compound 166], for which the activation at 0.1 µM lay within 5 to 20%.
Regarding `COc1ccc2c(c1)-n1nnc(COc3cccc(F)c3)c1Cc1c(-c3noc(C)n3)ncn1-2` [Compound 168], the activation at 0.1 µM was 5 to 20%.
To `COc1ccc2c(c1)-c1nnc(COc3ccccc3)n1Cc1c(-c3noc(C(C)C)n3)ncn1-2` [Compound 171] belongs > 50%.
For the compound `COc1ccc2c(c1)-c1nnc(COc3ccc(F)cc3)n1Cc1c(-c3noc(C(C)C)n3)ncn1-2` [Compound 172], the activation at 0.1 µM is > 50%.
For `CCOCc1nnc2n1Cc1c(-c3noc(C(C)C)n3)ncn1-c1ccc(OC)cc1-2` [Compound 173], the activation at 0.1 µM is > 50%.
Take `COc1ccc2c(c1)-c1nnc(COc3cccnc3)n1Cc1c(-c3noc(C(C)C)n3)ncn1-2` [Compound 176]: the activation at 0.1 µM was > 50%.
As for `COc1ccc2c(c1)-c1nnc(COc3cccc4ccccc34)n1Cc1c(-c3noc(C(C)C)n3)ncn1-2` [Compound 177], the activation at 0.1 µM is > 50%.
Consider `COc1ccc2c(c1)-c1nnc(COC3CCCC3)n1Cc1c(-c3noc(C(C)C)n3)ncn1-2` [Compound 178], for which the activation at 0.1 µM was > 50%.
For `COc1ccc2c(c1)-c1nnc(COc3cccc(F)c3)n1Cc1c(-c3noc(C(C)C)n3)ncn1-2` [Compound 179], the activation at 0.1 µM is > 50%.
Regarding `COc1ccc2c(c1)-n1nnc(COc3ccc(F)cc3)c1Cc1c(-c3noc(C)n3)ncn1-2` [Compound 180], the activation at 0.1 µM was in the range of 20 to 50%.
For `COc1ccc2c(c1)-n1nnc(COc3ccccc3F)c1Cc1c(-c3noc(C)n3)ncn1-2` [Compound 181], the activation at 0.1 µM lay in the range of 20 to 50%.
The same measure for `COc1ccc2c(c1)-n1nnc(COc3ccccc3)c1Cc1c(-c3noc(C)n3)ncn1-2` [Compound 182]: 20 to 50%; for `COc1ccc2c(c1)-c1nnc(COCc3cccc(F)c3)n1Cc1c(-c3noc(C(C)C)n3)ncn1-2` [Compound 183]: 20 to 50%.
On to `COc1ccc2c(c1)-c1nnc(COCc3ccccc3F)n1Cc1c(-c3noc(C(C)C)n3)ncn1-2` [Compound 184], for which the activation at 0.1 µM was in the range of 20 to 50%.
Turning to `CC(C)c1nc(-c2ncn3c2Cn2c(COc4cccnc4)nnc2-c2cc(F)ccc2-3)no1` [Compound 185], the activation at 0.1 µM was > 50%.
Turning to `COCc1nnc2n1Cc1c(-c3noc(C(C)C)n3)ncn1-c1ccc(F)cc1-2` [Compound 186], the activation at 0.1 µM was > 50%.
For the compound `CCOCc1nnc2n1Cc1c(-c3noc(C(C)C)n3)ncn1-c1ccc(F)cc1-2` [Compound 187], the activation at 0.1 µM lay in the range of 20 to 50%.
Consider `CC(C)c1nc(-c2ncn3c2Cn2c(COc4cccc(F)c4)nnc2-c2cc(F)ccc2-3)no1` [Compound 188], for which the activation at 0.1 µM was 20 to 50%.
As to `CC(C)c1nc(-c2ncn3c2Cn2c(COc4ccc(F)cc4)nnc2-c2cc(F)ccc2-3)no1` [Compound 189], the activation at 0.1 µM was in the range of 20 to 50%.
On to `Cc1cccc(C)c1OCc1nnc2n1Cc1c(-c3noc(C(C)C)n3)ncn1-c1ccc(F)cc1-2` [Compound 190], for which the activation at 0.1 µM is 5 to 20%.
As to `COc1ccc2c(c1)-c1nnc(COc3ccc(F)cc3)n1Cc1c(C#N)ncn1-2` [Compound 191], the activation at 0.1 µM was 20 to 50%.
`CCc1nc(-c2ncn3c2Cc2c(Cc4ccccc4)nnn2-c2cc(OC)ccc2-3)no1` [Compound 194]: the activation at 0.1 µM is > 50%.
`CCc1nc(-c2ncn3c2Cc2c(Cc4ccc(F)cc4)nnn2-c2cc(OC)ccc2-3)no1` [Compound 195]: the activation at 0.1 µM fell in the range of 20 to 50%.
As for `COc1ccc2c(c1)-c1nnc(COc3cccc(F)c3)n1Cc1c(C#N)ncn1-2` [Compound 196], the activation at 0.1 µM is 20 to 50%.
Regarding `COCc1nnc2n1Cc1c(-c3nc(C)no3)ncn1-c1ccc(Cl)cc1-2` [Compound 198], the activation at 0.1 µM lay within 20 to 50%.
With `FC(F)=Cc1ncn2c1Cn1c(COc3ccccc3)nnc1-c1cc(Cl)ccc1-2` [Compound 199], the activation at 0.1 µM lay in the range of 20 to 50%.
As to `FC(F)c1ncn2c1Cn1c(COc3ccccc3)nnc1-c1cc(Cl)ccc1-2` [Compound 200], the activation at 0.1 µM was in the range of 5 to 20%.
Take `Clc1ccc2c(c1)-c1nnc(COc3ccccc3)n1Cc1c(Br)ncn1-2` [Compound 202]: the activation at 0.1 µM lay within 20 to 50%.
The same measure for `COc1ccc2c(c1)-c1nnc(COCc3cccnc3)n1Cc1c(-c3noc(C(C)C)n3)ncn1-2` [Compound 203]: 20 to 50%; for `C#Cc1ncn2c1Cn1c(COc3ccccc3)nnc1-c1cc(Cl)ccc1-2` [Compound 205]: 20 to 50%; for `COCc1nnc2n1Cc1c(-c3nc(C(C)C)no3)ncn1-c1ccc(Cl)cc1-2` [Compound 206]: 5 to 20%.
With `COc1ccc2c(c1)-n1nnc(Cc3ccccc3)c1Cc1c(C#N)ncn1-2` [Compound 207], the activation at 0.1 µM lay in the range of 20 to 50%.
The same measure for `COc1ccc2c(c1)-n1nnc(Cc3cccnc3)c1Cc1c(C#N)ncn1-2` [Compound 210]: 20 to 50%; for `COc1ccc2c(c1)-n1nnc(C)c1Cc1c(Br)ncn1-2` [Compound 211]: 5 to 20%.
Consider `COc1ccc2c(c1)-n1nnc(Cc3ccccc3)c1Cc1c(Br)ncn1-2` [Compound 212], for which the activation at 0.1 µM is 20 to 50%.
Consider `COc1ccc2c(c1)-n1nnc(Cc3ccc(F)cc3)c1Cc1c(Br)ncn1-2` [Compound 213], for which the activation at 0.1 µM fell in the range of 20 to 50%.
On to `CCOCc1ncn2c1Cn1c(COC)nnc1-c1cc(Cl)ccc1-2` [Compound 215], for which the activation at 0.1 µM was in the range of 5 to 20%.
For the compound `COCc1nnc2n1Cc1c(Br)ncn1-c1ccc(Cl)cc1-2` [Compound 217], the activation at 0.1 µM is 5 to 20%.
On to `COc1ccc2c(c1)-n1nnc(COc3ccc(F)cc3)c1Cc1c(C#N)ncn1-2` [Compound 222], for which the activation at 0.1 µM lay in the range of 20 to 50%.
As to `COc1ccc2c(c1)-n1nnc(COc3ccccc3F)c1Cc1c(C#N)ncn1-2` [Compound 223], the activation at 0.1 µM lay within 5 to 20%.
